Experiments:
FGF23/FGFR4 binding = target: T1, FGF23/FGFR4 binding (Homo sapiens, UniProt P22455+Q9GZV9, R179Q); assay: Surface plasmon resonance, FGF23 binding to surface FGFR4 with heparin or sKL in solution; settings: heparin or sKL in solution
T1 construct: Fc-FGFR4 protein (human ectodomain) was immobilized; purchased R&D Systems human FGF23 2604FG025/CF; human FGFR4 685FR050
Method: For the direct quantitative analysis of label-free molecular interactions in real time, surface plasmon resonance studies were conducted using BIAcore T200 and T200 evaluation software (28975001, Cytiva). Sensor SA (BR100398) and CMS chips (BR100399) were from Cytiva. For the preparation of heparin chips, heparin (2 mg) and amine-PEG3-Biotin (2 mg, 21347, Pierce) were dissolved in 200 μl of H2O and 10 mg of NaCNBH3 was added. The reaction mixture was heated at 70° C. for 24 hours; an additional 10 mg of NaCNBH3 was added; and the reaction was heated at 70° C. for another 24 hours. After cooling to room temperature, the mixture was desalted with the spin column (3000 MWCO). Biotinylated heparin was collected, freeze dried, and used for chip preparation. Biotinylated heparin was immobilized to streptavidin chips according to the manufacturer's protocol. In brief, 20 μl of biotinylated heparin solution (0.1 mg/ml) in HBS-P running buffer (0.01 M N-2-hydroxyethylpiperazine-N′-2-ethanesulfonic acid, 0.15 M NaCl, 0.005% surfactant P20 [pH7.4]; BR100368, Cytiva) was injected over flow cell 2 of the streptavidin chip at a flow rate of 10 μl/min. The successful immobilization of heparin was confirmed by the observation of an approximately 200-resonance unit increase in the sensor chip. […] The response was monitored as a function of time (sensorgram) at 25° C.

[1] = tested on: neonatal rat ventricular myocytes; assay: Hypertrophic growth of isolated neonatal rat ventricular myocytes (cell area); type: cell-based; settings: for FGF23-induced increase in the cell area in the presence of heparin: heparin 0.19 USP/ml, increasing FGF23 concentrations, 48 hours
Method: Neonatal rat ventricular myocytes (NRVMs) were isolated using a kit according to the manufacturer's protocol (LK003300, Worthington Biochemical Corporation), as done previously.^13,16,17 Briefly, hearts from 1- to 3-day-old Sprague Dawley rats (Envigo) were harvested and minced in calcium- and magnesium-free Hanks balanced salt solution and the tissue was digested with 50 μg/ml of trypsin at 4° C. for 20 to 24 hours. Soybean trypsin inhibitor in Hanks balanced salt solution was added, and the tissue was further digested with collagenase (in Leibovitz L-15 medium) under slow rotation (0.14 g) at 37° C. for 45 minutes. Cells were broken up by triturating the suspension 20× with a standard 10-ml plastic serological pipette. Cells were then filtered through a cell strainer (70 μm, BD Falcon). Cells were incubated at room temperature for 20 minutes and spun at 100 g for 5 minutes. The cell pellet was resuspended in plating medium (DMEM Base [10013CV, Corning], 17% M199 [12350039, Gibco], 15% FBS [26140079, Gibco], I× Pen/Strep [15140122, Gibco]). For cell tracings, NRVMs were grown in 24-well plates on glass coverslips (CLS1760012, Chemglass). Slips were precoated with laminin (23017015, Invitrogen) at 10 μg/ml for 1 hour at 37° C. dissolved in PBS. Laminin was aspirated, and cells and medium were added. Cells were counted by a hemocytometer and plated at 4×10^5 cells per well. […] After 48 hours, maintenance medium was replaced, and after another 48 hours, cells were ready for treatment, giving a total of 72 hours of plating medium and 96 hours of maintenance medium before treatment. […]
The medium was aspirated, and cultured NRVMs were fixed in 2% paraformaldehyde (P-6148, Sigma-Aldrich) and 4% sucrose dissolved in PBS for 5 minutes followed by permeabilization with 1% Triton X-100 dissolved in PBS for 10 minutes. […] The cross-sectional area of myocytes was measured on the basis of α-actinin-positive staining using ImageJ software (v1.53, National Institutes of Health). […]

T1 sequence (Q9GZV9 25-251 R179Q): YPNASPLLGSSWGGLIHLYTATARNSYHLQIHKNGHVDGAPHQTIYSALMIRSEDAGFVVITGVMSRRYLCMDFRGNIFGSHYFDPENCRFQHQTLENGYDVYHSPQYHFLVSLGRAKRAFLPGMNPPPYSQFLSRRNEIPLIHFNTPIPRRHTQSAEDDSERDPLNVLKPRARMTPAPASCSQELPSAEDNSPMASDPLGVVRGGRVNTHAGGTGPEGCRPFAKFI
T1 sequence (P22455 22-369 limits assumed): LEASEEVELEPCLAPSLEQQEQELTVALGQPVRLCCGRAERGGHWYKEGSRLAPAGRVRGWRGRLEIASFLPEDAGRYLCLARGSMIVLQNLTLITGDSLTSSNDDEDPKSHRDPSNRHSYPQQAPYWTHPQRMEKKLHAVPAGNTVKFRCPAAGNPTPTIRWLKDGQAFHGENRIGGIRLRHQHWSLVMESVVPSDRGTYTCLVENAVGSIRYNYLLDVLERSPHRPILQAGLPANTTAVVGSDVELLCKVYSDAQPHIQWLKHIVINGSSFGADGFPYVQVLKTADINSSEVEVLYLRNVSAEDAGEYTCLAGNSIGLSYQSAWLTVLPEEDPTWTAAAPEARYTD

increase in FGF23/FGFR4 binding affinity (FGF23/FGFR4 binding): approximately 3 fold
Substance: heparin [reference compound]
FGF23-induced increase in the cell area in the presence of heparin [1]: increased this effect at all FGF23 concentrations | FGF23-induced increase in the cell area in the presence of heparin ([1]; listed as heparin): further elevated | NRVM area, treatment by itself ([1]; without FGF23, 48 hours): no effect

Reference: US20240384250A1, “FIBROBLAST GROWTH FACTOR 23 MODULATING COMPOUNDS” (THE UAB RESEARCH FOUNDATION, priority 2021, published 2024)
